Laboratory results as given in ChEMBL document CHEMBL4229511, “Synthesis and biological activity investigation of azole and quinone hybridized phosphonates” (Bioorg Med Chem Lett, 2018).
Converted amounts (≈) assume the structure as drawn.

How the values were obtained:
Cryptococcus neoformans = experiment: Antifungal activity against Cryptococcus neoformans H99 by CLSI […] protocol based method; format: functional; settings: var grubii H99
HeLa [1] = experiment: Cytotoxicity against human HeLa cells up to 10 ug/ml after 24 hrs by MTT assay; format: cell-based
Staphylococcus aureus [2] = experiment: Antibacterial activity against Staphylococcus aureus ATCC 33591 after 18 hrs; format: functional; settings: ATCC 33591, 18 h
Candida albicans [3] = experiment: Antifungal activity against Candida albicans MYA2876 by CLSI […] protocol based method; format: functional
Staphylococcus aureus [4] = experiment: Antibacterial activity against Staphylococcus aureus ATCC 43300 after 18 hrs; format: functional; settings: ATCC 43300, 18 h
Aspergillus flavus = experiment: Antifungal activity against Aspergillus flavus by CLSI […] protocol based method; format: functional
Rhodotorula mucilaginosa = experiment: Antifungal activity against Rhodotorula pilimanae by CLSI […] protocol based method; format: functional
HeLa [5] = experiment: Cytotoxicity against human HeLa cells after 24 hrs by MTT assay; format: cell-based
Escherichia coli = experiment: Antibacterial activity against Escherichia coli ATCC 25922 after 18 hrs; format: functional; settings: ATCC 25922, 18 h
Fusarium graminearum = experiment: Antifungal activity against Fusarium graminearum by CLSI […] protocol based method; format: functional
Candida albicans [6] = experiment: Antifungal activity against Candida albicans ATCC 64124 by CLSI […] protocol based method; format: functional
Staphylococcus aureus [7] = experiment: Antibacterial activity against Staphylococcus aureus ATCC 25923 after 18 hrs; format: functional; settings: ATCC 25923, 18 h

Row | SMILES | MIC (Cryptococcus neoformans) [µg/mL] | Activity (HeLa [1]) | MIC (Staphylococcus aureus [2]) [µg/mL] | MIC (Candida albicans [3]) [µg/mL] | MIC (Staphylococcus aureus [4]) [µg/mL] | MIC (Aspergillus flavus) [µg/mL] | MIC (Rhodotorula mucilaginosa) [µg/mL] | IC50 (HeLa [5]) [µg/mL] | MIC (Escherichia coli) [µg/mL] | MIC (Fusarium graminearum) [µg/mL] | MIC (Candida albicans [6]) [µg/mL] | MIC (Staphylococcus aureus [7]) [µg/mL]
1 | CCOP(=O)(CCCCCCCCn1nnc2c1C(=O)c1ccccc1C2=O)OCC | > 128 | Non-Toxic | 32 (≈ 71.5 µM) | > 128 | 16 to 32 (≈ 35.8 to 71.5 µM) | > 128 | > 128 | 52 (≈ 116 µM) | > 128 | 1 to 2 (≈ 2.23 to 4.47 µM) | > 128 | 64 (≈ 143 µM)
2 | C[C@@H](c1ncncc1F)[C@](O)(Cn1cncn1)c1ccc(F)cc1F [VORICONAZOLE] | 0.125 (≈ 0.358 µM) | – | – | 0.125 (≈ 0.358 µM) | – | 1 (≈ 2.86 µM) | 8 (≈ 22.9 µM) | – | – | 32 (≈ 91.6 µM) | > 256 | –
3 | O=C1c2ccccc2C(=O)c2c1nnn2CCCP(=O)([O-])[O-].[K+].[K+] | 32 | Non-Toxic | 128 | 32 | 64 to 128 | 16 to 32 | 32 | 88 | > 256 | 32 | 32 | 32
4 | CCOP(=O)(CCCCCCn1nnc2c1C(=O)c1ccccc1C2=O)OCC | 32 (≈ 76.3 µM) | – | 64 (≈ 153 µM) | > 128 | 32 to 64 (≈ 76.3 to 153 µM) | > 128 | 64 to 128 (≈ 153 to 305 µM) | 47 (≈ 112 µM) | > 128 | 4 (≈ 9.54 µM) | > 128 | 32 to 64 (≈ 76.3 to 153 µM)
5 | O=C1c2ccccc2C(=O)c2c1nnn2CCCCCCCCP(=O)([O-])[O-].[K+].[K+] | 32 | Non-Toxic | 256 | 8 to 16 | > 256 | 8 to 16 | > 128 | 95.3 | > 256 | 32 | 16 to 32 | 64
6 | CCOP(=O)(CCCCn1nnc2c1C(=O)c1ccccc1C2=O)OCC | 32 (≈ 81.8 µM) | – | 128 (≈ 327 µM) | > 128 | 64 to 128 (≈ 164 to 327 µM) | > 128 | 128 (≈ 327 µM) | 9.11 (≈ 23.3 µM) | > 128 | 8 (≈ 20.4 µM) | > 128 | 128 (≈ 327 µM)
7 | O=C1c2ccccc2C(=O)c2c1nnn2CCP(=O)([O-])[O-].[K+].[K+] | 64 | Non-Toxic | 128 | > 128 | 128 | > 128 | 128 | 91.8 | > 256 | 32 | > 128 | 32
8 | CCOP(=O)(CCn1nnc2c1C(=O)c1ccccc1C2=O)OCC | 16 (≈ 44 µM) | – | 64 (≈ 176 µM) | > 128 | 64 (≈ 176 µM) | 64 to 128 (≈ 176 to 352 µM) | 64 to 128 (≈ 176 to 352 µM) | 13.8 (≈ 38.1 µM) | > 128 | 16 (≈ 44 µM) | > 128 | 64 (≈ 176 µM)
9 | CCOP(=O)(CCCCCCCCCCn1nnc2c1C(=O)c1ccccc1C2=O)OCC | > 128 | Non-Toxic | 64 (≈ 135 µM) | > 128 | 16 to 64 (≈ 33.6 to 135 µM) | – | > 128 | 65.7 (≈ 138 µM) | > 128 | 0.5 (≈ 1.05 µM) | > 128 | > 128
10 | CCCCCCCCS(=O)(=O)OC[C@H]1O[C@H](O[C@@H]2[C@@H](O)[C@H](O[C@H]3O[C@H](CN)[C@@H](O)[C@H](O)[C@H]3O)[C@@H](N)C[C@H]2N)[C@H](O)[C@@H](N)[C@@H]1O | 4 (≈ 6.05 µM) | – | – | 64 (≈ 96.9 µM) | – | > 256 | 4 (≈ 6.05 µM) | – | – | 32 (≈ 48.4 µM) | 256 (≈ 387 µM) | –
11 | O=C1c2ccccc2C(=O)c2c1nnn2CCCCCCP(=O)([O-])[O-].[K+].[K+] | 64 | Non-Toxic | 64 | 32 to 64 | 64 | 64 | 128 | 73.6 | > 256 | 64 | 32 to 64 | 32 to 64
12 | CCOP(=O)(CCCn1nnc2c1C(=O)c1ccccc1C2=O)OCC | 16 (≈ 42.4 µM) | – | 64 (≈ 170 µM) | > 128 | 64 to 128 (≈ 170 to 339 µM) | 64 to 128 (≈ 170 to 339 µM) | 64 to 128 (≈ 170 to 339 µM) | 6.97 (≈ 18.5 µM) | > 128 | 16 (≈ 42.4 µM) | > 128 | 64 (≈ 170 µM)
13 | O=C1c2ccccc2C(=O)c2c1nnn2CCCCCCCCCCP(=O)([O-])[O-].[K+].[K+] | 32 | Non-Toxic | > 256 | 128 | > 256 | – | 64 | > 100 | > 256 | 32 | 128 | 32 to 64
